The conditions of data set [1]: for Normal melting temperature: Crystal.
The nature of data set [2]: Molar enthalpy of transition or fusion. The following applies: Crystal; DSC.

Data on five molecules can be found in the NIST ThermoML archive (doi:10.1021/je8006309).

SMILES strings stand for the structures. Numbers after ± are expanded uncertainties.

Consider `CCCCCCCCCCO` [decan-1-ol], for which, in data set [1], the Normal melting temperature turned out to be 7.36 ± 0.93 °C.
Take `CCCC[n+]1ccc(C)cc1.Cc1ccc(S(=O)(=O)[O-])cc1` [N-butyl-4-methylpyridinium tosylate]: the “Molar enthalpy of transition or fusion” value in data set [2] was 3.42 ± 0.0908 kcal/mol. The Normal melting temperature in data set [1] (DTA) stood at 51.71 ± 0.39 °C. In addition, the Glass transition temperature in data set [1] (Glass, DTA) is -57.3 ± 3 °C.
As to `c1ccccc1` [benzene], in data set [1] (DTA), the Normal melting temperature was found to be 5.14 ± 0.39 °C.
For `CCCCCCCCO` [octan-1-ol], the Normal melting temperature in data set [1] is -14.00 ± 0.93 °C.
For `O` [water], the Normal melting temperature in data set [1] was found to be 0.00 ± 0.93 °C.
